From publication PMC8398714, “Synthesis and Evaluation of Biological Activities of Bis(spiropyrazolone)cyclopropanes: A Potential Application against Leishmaniasis” (Molecules, 2021) come the findings set out here.

Series [1] relates to RKO. The series is described as follows: MTS cell viability assay on RKO cells. Type of series: cell-based. The following applies: Homo sapiens, 48 h; for inhibition at 100 µM: Dox 1 µM, mean ± SEM, NA = no activity, read-out: Percentage (%) of inhibition, RKO; for IC50: 15-150 µM, mean ± SEM of triplicates. How it is done:
(§1) Five tumor human cancer cell lines—cerebral astrocytoma (D-384), grade IV prostatic adenocarcinoma (PC-3), mammary adenocarcinoma (MCF-7), human colon carcinoma (RKO) and lung carcinoma (A-549)—along with one immortalized hamster cell line (CHO K-1) were used. The cells PC-3, MCF-7 and RKO were cultured in RPMI-1640, D-384 on DMEM and CHO K-1 on HAM F-12 medium supplemented with 10% fetal bovine serum (FBS, Invitrogen, Karlsruhe, Germany), 1% antibiotic-antimitotic solution (100 units/mL penicillin G, 100 µg/mL streptomycin, and 0.25 µg/mL amphotericin B, Gibco, Grand Island, NY, USA), and 1% L-glutamine (2 mM, Gibco). The cells were incubated at 37 °C in a 5% CO2 atmosphere. The viable cells were counted using the trypan blue exclusion method in a hemocytometer.
(§2) The MTS (5-[3-(carboxymethoxy)phenyl]-3-(4,5-dimethyl-2-thiazolyl)-2-(4-sulfo- phenyl)-2H-tetrazolium inner salt) cell viability assay was used to assess the inhibitory effects of the extracts on the survival of human cancer cell lines. A total of 3–5 × 10^3 cells/well were seeded into 96-well plates and were allowed to adhere for 24 h. […] Each concentration/assay was performed three times. Dimethyl sulfoxide (DMSO) was used as a negative control at a final concentration of 0.1% v/v, and 1 µM Doxorubicin was used as a positive control. The cells were incubated with the treatments for 48 h, after which 20 µL MTS (5 mg/mL, Aqueous One Solution Reagent, Gibco) was added and further incubated for 4 h at 37 °C. The absorbance was measured at 570 nm. The data obtained with cells treated with DMSO were defined to represent 100% viability.

For series [2], the system named is MCF-7. The series is described as follows: MTS cell viability assay on MCF-7 cells. Type of series: cell-based. To be noted: Homo sapiens, MCF7, 48 h, Dox 1 µM, mean ± SEM, NA = no activity, read-out: Percentage (%) of inhibition, MCF-7. How it is done:
as §1, §2

Series [3] has as its system CHO-K1. The series is described as follows: MTS cell viability assay on immortalized CHO-K1 cells. Type of series: cell-based, hamster. The following applies: 48 h, Dox 1 µM, mean ± SEM, NA = no activity, read-out: Percentage (%) of inhibition, CHO-K1. The procedure:
as §1, §2

The nature of series [4]: Cytotoxicity, MTT assay on RAW 264.7 macrophages. Type of series: cell-based. To be noted: mouse. How it is done: Raw 264.7 (ATCC® TIB-71™) was maintained in Dulbecco’s Modified Eagle Medium (DMEM) (Gibco, Invitrogen, Gibco, Carlsbad, CA, USA) supplemented with 10% fetal bovine serum (FBS) (Eurobio, Les Ulis, France) and 100 IU/mL penicillin + 100 μg/mL streptomycin (Gibco), at 37 °C in a 5% CO2 atmosphere. The medium was renewed once a week. The viability was determined using MTT (Thiazolyl Blue Tetrazolium Bromide) dye assay as described before for leishmanicidal activity assessment, with some variations. Here, 5 × 10^4 cells/well in a final volume of 100 µL were deposited into a 96-well plate, in triplicate. Saponin (2.4 mg/mL) and untreated cells were used as positive control and negative control, respectively. A stock solution was prepared in DMSO and immediately diluted in media to obtain different serial concentrations (100–0.01 µM). After 48 h exposure to the compounds, 10 µL/well of MTT (5 mg/mL MTT in PBS) were added, and the plate was incubated at 37 °C for 2 h in the dark. Cells were pelleted by centrifugation at 4400 rpm for 10 min and the media was removed. Then, 100 µL/well of DMSO were added and the absorbance at 570 nm was recorded; a reference wavelength of 630 nm was used for background subtraction.

The nature of series [5]: DPPH radical scavenging assay. To be noted: 30 min, 515 nm. How it is done: The stock solution of the compounds was prepared by dissolving 4 in dimethyl sulfoxide (DMSO) to a concentration of 4 mg/mL. The solution was diluted with methanol until a concentration of 400 µg/mL was obtained and then used immediately.
The experimental procedure was adapted from the literature. Briefly, 100 µL of a 0.2 mM methanol solution of DPPH (2, 2-diphenyl-1-picrylhydrazyl) radical were added to 100 µL of methanolic solutions of 4 prepared as serial two-fold dilutions from the stock solution in 96-well microfilter plates. Standards and edaravone were also prepared in the same concentrations. The mixture was incubated in dark at room temperature for 30 min and the absorbance was read at 515 nm on a Cytation 5 (BioTek) spectrophotometer.
The % DPPH scavenging activity was then calculated by using the following formula:(1) % DPPH scavenging = 100 × [(Asample+DPPH−Asample blank)/(ADPPH−Asolvent)]
The antioxidant activity of the compound was expressed as IC50, which is defined as the concentration that could scavenge 50% of the DPPH free radical. The IC50 values were calculated in GraphPad Prism 7.02 (GraphPad Software, Corp.) The results are given as a mean ± standard deviation (SD) of experiments done in triplicate.

Series [6] relates to CHO-K1 cells. Type of series: cell-based, hamster. How it is done:
Cells were mixed with 150 μL low-melting-point agarose 1% (LMP, Promega, Madison, WI, USA) and added to microscope slides previously prepared with normal-melting-point agarose 1% (NMP, Invitrogen, Carlsbad, CA, USA). A third LMP agarose layer (150 µL) was added. The slides were immersed in a cooled lysing solution (pH 10) with 10% DMSO, 1% Triton X-100 (Sigma Aldrich, Saint Louis, MO, USA), 2.5 M NaCl (Loba Chemie, Mumbai, India), 100 mM EDTA and 10 mM Tris (Invitrogen, Carlsbad, CA, USA) for 12 h at 4 °C. All steps after lysis were performed under darkness or yellow light to prevent additional DNA damage. The slides were immersed for 20 min in an electrophoresis buffer solution (pH 13) with NaOH 300 mM (Fisher Scientific, Waltham, MA, USA) and EDTA 1 mM (Invitrogen, Carlsbad, CA, USA) to allow for DNA unwinding. Electrophoresis was later performed at 25 V and 300 mA for 20 min. Slides were then sprayed with a neutralization buffer (pH 7.5) 0.4 M Tris (Sigma Aldrich, Saint Louis, MO, USA). Ethidium bromide (60 µL) was added to each slide, and a cover glass was placed on the gel. The DNA migration was analyzed using a ZEISS-Axioskop 2 plus microscope with fluorescence (40×) by scoring 100 cells per slide in duplicate. After that, the tail moment parameter was analyzed by a Comet Assay IV software (Perceptive Instruments Ltd., Bury St Edmunds, Suffolk, UK).

Series [7] relates to A-549. Briefly: MTS cell viability assay on A-549 cells. Type of series: cell-based. The following applies: Homo sapiens, A549; 100 µM, 48 h; Dox 1 µM; mean ± SEM; NA = no activity; read-out: Percentage (%) of inhibition, A-549. The procedure:
as §1, §2

The mark [8] stands for this setting: RAW cells, 48 h, MTT, read-out: Cytotoxicity CC50.
[9] abbreviates: Statistical Analyses S1, unrounded mean of CC50 in RAW cells, unit inferred, read-out: CC50 original values, x.1 (Mean).

Where “and” joins values, the source holds several entries; their conditions need not be identical. Equal values may be shown once. Read-outs that look alike come from different tables or passages of the source.

`CC1=NN(c2ccccc2)C(=O)[C@@]12C(c1ccccc1)[C@@]21C(=O)N(c2ccccc2)N=C1C` (relative stereo) [4b, (5R*,6R*)-4,10-Dimethyl-2,8,11-triphenyl-2,3,8,9-tetraazadispiro[4.0.4.1]undeca-3,9-diene-1,7-dione] registered a melting point of 129 to 130 °C. In addition, in series [1], the inhibition at 100 µM turned out to be 21.7 ± 2.37%. In addition, the inhibition at 100 µM in series [2] amounted to 7.87 ± 2.92%. In addition, in series [3], the inhibition at 100 µM stood at 5.76 ± 3.08%. Besides, the CC50 at 48 h in series [4] (setting [8]) was 3.4 ± 1.5 µM. Also, the CC50 at 48 h in series [4] (setting [9]) was determined as 3.44 µM. Besides, in series [5], the IC50 is above 300 µM. In series [6], the “Genotoxic effect in comet assay versus DMSO control” value is recorded as “did not show differences with respect to the control of DMSO”.

`CC1=NN(c2ccccc2)C(=O)[C@@]12C(c1ccccc1[N+](=O)[O-])[C@@]21C(=O)N(c2ccccc2)N=C1C` (relative stereo) [4c, (5R*,6R*)-11-(2-Nitrophenyl)-4,10-dimethyl-2,8-diphenyl-2,3,8,9-tetraazadispiro[4.0.4.1]undeca-3,9-diene-1,7-dione]: the melting point was in the range of 165.1 to 165.5 °C. Moreover, the inhibition at 100 µM in series [1] amounted to 37.3 ± 1.22%. Further, the inhibition at 100 µM in series [7] was determined as 6.1 ± 0.86%. Moreover, the inhibition at 100 µM in series [2] stood at 16.7 ± 5.36%. The inhibition at 100 µM in series [3] was 2.62 ± 2.2%. Besides, the CC50 at 48 h in series [4] (setting [8]) was 2.3 ± 0.2 µM. In addition, the CC50 at 48 h in series [4] (setting [9]) is 2.26 µM. For the same compound, the IC50 in series [5] is above 300 µM.

The compound `COc1ccc(C2[C@@]3(C(=O)N(c4ccccc4)N=C3C)[C@]23C(=O)N(c2ccccc2)N=C3C)cc1` (relative stereo) [4e, (5R*,6R*)-11-(4-Methoxyphenyl)-4,10-dimethyl-2,8-diphenyl-2,3,8,9-tetraazadispiro[4.0.4.1]undeca-3,9-diene-1,7-dione] showed a melting point of 163.5 to 165.7 °C. Also, in series [1], the inhibition at 100 µM turned out to be 36.8 ± 1.55%. In series [7], the inhibition at 100 µM was determined as 7.97 ± 1.46%. Besides, the inhibition at 100 µM in series [2] was 4.47 ± 3.48%. In addition, the CC50 at 48 h in series [4] (setting [8]) stood at 7.3 ± 2 µM. Further, in series [4] (setting [9]), the 50% cytotoxic concentration (CC50) at 48 h worked out at 7.28 µM. This compound returned an IC50 in series [5] above 300 µM.

On to `COc1ccccc1C1[C@@]2(C(=O)N(c3ccccc3)N=C2C)[C@]12C(=O)N(c1ccccc1)N=C2C` (relative stereo) [4f, (5R*,6R*)-11-(2-Methoxyphenyl)-4,10-dimethyl-2,8-diphenyl-2,3,8,9-tetraazadispiro[4.0.4.1]undeca-3,9-diene-1,7-dione], for which the melting point fell in the range of 147.8 to 149 °C. Besides, in series [1], the inhibition at 100 µM worked out at 28.7 ± 0.29%. Also, the inhibition at 100 µM in series [7] was found to be 10.4 ± 3.28%. The inhibition at 100 µM in series [3] is 2.79 ± 1.49%. Also, the CC50 at 48 h in series [4] (setting [8]) was determined as 12.8 ± 1.2 µM. For the same compound, the CC50 at 48 h in series [4] (setting [9]) amounted to 12.8 µM. The compound further showed an IC50 in series [5] above 300 µM.

Regarding `CC1=NN(c2ccccc2)C(=O)[C@@]12C(c1ccc([N+](=O)[O-])cc1)[C@@]21C(=O)N(c2ccccc2)N=C1C` (relative stereo) [4k, (5R*,6R*)-11-(4-Nitrophenyl)-4,10-dimethyl-2,8-diphenyl-2,3,8,9-tetraazadispiro[4.0.4.1]undeca-3,9-diene-1,7-dione], the melting point is 145.3 to 152.9 °C (dec.). Also, in series [1], the inhibition at 100 µM is 67.6 ± 0.77% and half-maximal inhibition (IC50) required 84 ± 9.46 µM. The inhibition at 100 µM in series [7] came out at 26.7 ± 3.03%. For the same compound, the inhibition at 100 µM in series [2] was found to be 43 ± 3.46%. Moreover, the CC50 at 48 h in series [4] (setting [8]) amounted to 3.3 ± 1 µM. In series [4] (setting [9]), the CC50 at 48 h is 3.31 µM. In addition, the IC50 in series [5] is 234 µM and < 300 µM. Also, the “Genotoxic effect in comet assay versus DMSO control” value in series [6] is recorded as “most significant”.

`CC1=NN(c2ccccc2)C(=O)[C@@]12C(c1ccc(C(F)(F)F)cc1)[C@@]21C(=O)N(c2ccccc2)N=C1C` (relative stereo) [4r, (5R*,6R*)-11-(4-Trifluoromethylphenyl)-4,10-dimethyl-2,8-diphenyl-2,3,8,9-tetraazadispiro[4.0.4.1]undeca-3,9-diene-1,7-dione]: the melting point lay in the range of 154.6 to 156.5 °C. Further, in series [1], the inhibition at 100 µM turned out to be 64.71 ± 0.52% and the IC50 is 60.7 ± 9.95 µM. In addition, the inhibition at 100 µM in series [7] worked out at 28.6 ± 3.71%. The inhibition at 100 µM in series [2] stood at 45.8 ± 2.11%. The inhibition at 100 µM in series [3] is 4.74 ± 3.04%. Besides, in series [4] (setting [8]), the CC50 at 48 h is 6.5 ± 0.9 µM. Further, the CC50 at 48 h in series [4] (setting [9]) was 6.48 µM. This compound showed an IC50 in series [5] above 300 µM.

On to `CC1=NN(c2ccccc2)C(=O)[C@@]12C(c1ccc(OC(F)(F)F)cc1)[C@@]21C(=O)N(c2ccccc2)N=C1C` (relative stereo) [4s, (5R*,6R*)-11-(4-Trifluoromethoxyphenyl)-4,10-dimethyl-2,8-diphenyl-2,3,8,9-tetraazadispiro[4.0.4.1]undeca-3,9-diene-1,7-dione], for which the melting point was 150.5 to 151.5 °C. In addition, in series [1], the inhibition at 100 µM was determined as 70.2% and the midpoint of inhibition, the IC50, lay at 63.8 ± 6.48 µM. The inhibition at 100 µM in series [7] turned out to be 24.4 ± 1.36%. Moreover, the inhibition at 100 µM in series [2] is 9.91 ± 3.37%. Besides, the CC50 at 48 h in series [4] (setting [8]) worked out at 8.6 ± 3.2 µM. The 50% cytotoxic concentration (CC50) at 48 h in series [4] (setting [9]) is 8.63 µM. In series [5], the IC50 was above 300 µM.
